Test results: patent US9693551B2, “Pesticidal dispersible concentrate formulations” (Valent U.S.A., Corporation, priority 2013, dated 2017)

Legend:
Assay type in all cases: in vivo
[1] = system: Corn seeds; assay: Efficacy on corn seeds in Mississippi (emergence and yield)
[2] = system: Rhizoctonia; assay: Efficacy on corn seed in Ohio, soil inoculated with Rhizoctonia
Method: Corn seeds were treated with 1 fluid ounce per one hundred weight (fl oz/cwt) of the Formulations of Examples 1 and 4 prior to being planted in Ohio. Untreated seeds were planted to assess the disease impact in stand establishment. Besides the control, commercially available and known fungicides were applied to determine the effectiveness of formulations of the present invention.
At planting, the soil was inoculated with a fungus of the genus Rhizoctonia, a common corn plant pathogen that causes rot disease, to assess field performance and seedling protection of the above formulas.
“Plants per acre” was determined to establish stand density. Stand Density of Ohio Corn Plants after Seed Treatment.”

[3] = system: Fusarium; assay: Efficacy on corn seed in Illinois, soil inoculated with Fusarium; settings: for Plants per acre 14DAP / Plants per acre 28DAP: Fusarium-inoculated soil; for Plants per acre 14DAP: 14 days after planting; for Plants per acre 28DAP: 28 days after planting; for % disease: number of plants with Fusarium infection
Method: Corn seeds were treated with 1 fluid ounce per one hundred weight (fl oz/cwt) or 65 mls/100 kg seed of the Formulations of Examples 1 and 4 prior to being planted in Illinois. Untreated seeds (“UTC”) were planted to assess the disease impact in stand establishment. Besides the control, commercially available and known fungicides were applied to determine the effectiveness of formulations of the present invention. Maxim® XL (Maxim is a registered trademark of Syngenta) is a fungicide containing 21% fludioxonil and 8.4% mefenoxam in a proprietary formulation. Apron XL® (Apron XL is a registered trademark of Syngenta) is fungicide containing 33.3% of mefenoxam in a proprietary formulation. Metalaxyl was applied in a 30.1% formulation and metconazole was applied in an approximately 40% dispersion with approximately 4% glycerine and other inert ingredients.
At planting, the soil was inoculated with a fungus of the genus Fusarium, a common corn plant pathogen that causes stalk rot disease, to assess field performance and seedling protection of the above formulas.
“Plants per acre” was determined to establish stand density. “% disease” was calculated by observing number of plants with Fusarium infection. The “height (cm) on roots” was determined. Stand Density and % Disease of Illinois Corn Plants after Seed Treatment.”

Row | Structure (SMILES) | Yield (bu/A) [1] | Yield (kg/hectare) [1] | % Emergence 20DAP [1] | % Emergence 35DAP [1] | Plants per acre 14DAP [2] | Plants per acre 28DAP [2] | Height (cm) on roots [3] | Plants per acre 14DAP [3] | Plants per acre 28DAP [3] | % disease [3]
1 | COCC(=O)N(c1c(C)cccc1C)C(C)C(=O)OC (centres unmarked) [Metalaxyl, metalaxyl] | 154 bu/A | 9662.3 kg/hectare | 91.5% | 83.3% | 22400 plants per acre | 28700 plants per acre | 61.0 cm | 25352 plants per acre | 26049 plants per acre | 18.0%
2 | CC1(C)CCC(Cc2ccc(Cl)cc2)C1(O)Cn1cncn1 (centres unmarked) [Metconazole, metconazole] | 155.5 bu/A | 9756.4 kg/hectare | 80.8% | 84.8% | 28875 plants per acre | 28700 plants per acre | 57.3 cm | 28401 plants per acre | 29011 plants per acre | 37.6%
